Key:
[1] = test system: ethanol induced ulcers in the rat; experiment: Ethanol induced ulcers in the rat; format: in vivo
Procedure: (§1) The anitulcer activity of these derivatives was evaluated on ulcers induced by the administration of ethanol, hydrochloric acid and sodium hydroxide in the rat, also on gastric ulcers induced by aspirin in the rat, and on their influence on gastric secretions in the rat.
(1) Ethanol induced ulcers in the rat:
The method used is that described by A. Robert et al, in Gastroenterology 77,433 (1979), the disclosure of which is incorporated herein by reference.

[2] = test system: NaOH induced ulcers in the rat; experiment: Sodium hydroxide induced ulcers in the rat; format: in vivo
Procedure: as §1
(3) Sodium hydroxide induced ulcers in the rat:
Also this test is performed in accordance with the method described by A. Robert et al, in Gastroenterology, 77,433 (1979), the disclosure of which is incorporated herein by reference.

[3] = test system: gastric secretion in the rat; experiment: Gastric secretion in the rat; format: in vivo, Sprague-Dawley rats
Procedure: as §1
(5) Gastric secretion in the rat:
Sprague-Dawley rats of both sexes are used for this test. The gastric secretion is rated according to the method described by H. Shay et al in Gastroenterology 5,43 (1945) the disclosure of which is incorporated herein by reference.

[4] = test system: HCl induced ulcers in the rat; experiment: Hydrochloric acid induced ulcers in the rat; format: in vivo
Procedure: as §1
(2) Hydrochloric acid induced ulcers in the rat:
The method used for this test is that described by A. Robert et al, in Gastroenterology, 77,433, (1979), the disclosure of which is incorporated herein by reference.

[5] = test system: gastric depletion in the rat; experiment: Gastric depletion in the rat; format: in vivo
Procedure: Gastric depletion in the rat.
Rats of both sexes and mean weight of 180-200 g are used. The animals are subjected to fasting for 24 hours but have free access to water up to 3 hours prior to the test.
Preparation of phenyl red solution: 50 mg of phenyl red is mixed with 100 ml of a 1.5% methyl cellulose solution and shaken for 5 hours.
1.5 ml per rat is administered irrespective of weight.
The rats are sacrificed by cervix translocation: the stomach is taken out after ligaturing the cardias and pilorus.
The entire stomach and contents are placed in the container of a homogenizer with 50 ml of 0.1N NaOH. They are homogenized for 2 minutes at a maximum velocity. They homogenate is transferred to a test-tube and left to settle for one hour.
5 ml of the supernatant is taken out and put into a centrifuge tube and mixed with 0.5 ml of 20% (w/v) trichloroacetic acid. The tube is centrifuged at 2500 rpm for 20 min. The entire supernatant is taken and mixed with 4 ml of 0.4N NaOH, and its absorbance is measured at 560λ.
Gastric depletion is calculated according to the following formula:
(1-sample absorbance/standard absorbance)×100
As "standard absorbance" is considered the mean value of spectophotometric measurement of 4 animals sacrificed immediately after administering phenyl red.

[6] = test system: aspirin-induced ulcers in the rat; experiment: Aspirin induced gastric ulcers in the rat; format: in vivo; conditions: 200 mg/kg of drug
Procedure: as §1
(4) Aspirin induced gastric ulcers in the rat:
For carrying out this test, the method described by H. A. Carmichael, L. M. Nelson, R. I. Russel in Gastroenterology 74, 1229 (1978) is used, the disclosure of which is incorporated herein by reference.

SMILES: CCCCCCC1CCC(NC)C1CCCCCCC(=O)O (centres unmarked) [drawing 9]
- Percent inhibition of ethanol induced ulcers in the rat ([1]; 5 mg/kg): 44%
- Percent inhibition of ethanol induced ulcers in the rat ([1]; 10 mg/kg): 67%
- Percent inhibition of ethanol induced ulcers in the rat ([1]; 25 mg/kg): 86%
- Percent inhibition of ethanol induced ulcers in the rat ([1]; 50 mg/kg): 91%
- Percent inhibition of ethanol induced ulcers in the rat ([1]; 100 mg/kg): 91%

SMILES: CCCCCCC1CCC(NC(C)=O)C1CCCCCCC(=O)O (centres unmarked) [drawing 24]
- Percent inhibition of NaOH induced ulcers in the rat ([2]; 12.5 mg/kg): 7%
- Percent inhibition of NaOH induced ulcers in the rat ([2]; 25 mg/kg): 19%
- Percent inhibition of NaOH induced ulcers in the rat ([2]; 50 mg/kg): 59%

SMILES: CCCCCCC1CCC(N)C1CCCCCCC(=O)O (centres unmarked) [drawing 32]
- Percent inhibition of gastric secretion in the rat ([3]; 12.5 mg/kg, 2 h after treatment): 38%
- Percent inhibition of gastric secretion in the rat ([3]; 25 mg/kg, 2 h after treatment): 87%
- Percent inhibition of gastric secretion in the rat ([3]; 50 mg/kg, 2 h after treatment): 88%
- Percent inhibition of gastric secretion in the rat ([3]; 50 mg/kg, 4 h after treatment): 68%
- Percent inhibition of gastric secretion in the rat ([3]; 100 mg/kg, 2 h after treatment): 77%
- Percent inhibition of gastric secretion in the rat ([3]; 100 mg/kg, 4 h after treatment): 89%

SMILES: CCCCCCC1CCC(O)C1CCCCCCC(=O)O (centres unmarked) [drawing 13]
- Percent inhibition of ethanol induced ulcers in the rat ([1]; 50 mg/kg): 9%
- Percent inhibition of ethanol induced ulcers in the rat ([1]; 100 mg/kg): 37%

SMILES: CCCCCCC1CCC(N(C)C)C1CCCCCCC(=O)O (centres unmarked) [drawing 34]
- Percent inhibition of gastric secretion in the rat ([3]; 25 mg/kg, 2 h after treatment): 74%
- Percent inhibition of gastric secretion in the rat ([3]; 25 mg/kg, 4 h after treatment): 23%
- Percent inhibition of gastric secretion in the rat ([3]; 50 mg/kg, 2 h after treatment): 75%
- Percent inhibition of gastric secretion in the rat ([3]; 50 mg/kg, 4 h after treatment): 55%
- Percent inhibition of gastric secretion in the rat ([3]; 100 mg/kg, 2 h after treatment): 82%
- Percent inhibition of gastric secretion in the rat ([3]; 100 mg/kg, 4 h after treatment): 63%

SMILES: CCCCCCC1CCC(NC(C)C)C1CCCCCCC(=O)O (centres unmarked) [drawing 17]
- Percent inhibition of HCl induced ulcers in the rat ([4]; 25 mg/kg): 0%
- Percent inhibition of HCl induced ulcers in the rat ([4]; 50 mg/kg): 46%
- Percent inhibition of HCl induced ulcers in the rat ([4]; 100 mg/kg): 54%

SMILES: CCCCCCC1CCC(O)C1CCCCCCC(=O)O (centres unmarked) [drawing 19]
- Percent inhibition of HCl induced ulcers in the rat ([4]; 25 mg/kg): 15%
- Percent inhibition of HCl induced ulcers in the rat ([4]; 100 mg/kg): 45%
- Percent inhibition of HCl induced ulcers in the rat ([4]; 200 mg/kg): 63%

SMILES: CCCCCCC1CCC(N)C1CCCCCCC(=O)O (centres unmarked) [drawing 14]
- Percent inhibition of HCl induced ulcers in the rat ([4]; 50 mg/kg): 68%
- Percent inhibition of HCl induced ulcers in the rat ([4]; 100 mg/kg): 89%
- Percent inhibition of HCl induced ulcers in the rat ([4]; 200 mg/kg): 91%

SMILES: CCCCCCC1CCC(NC(C)C)C1CCCCCCC(=O)O (centres unmarked) [drawing 23]
- Percent inhibition of NaOH induced ulcers in the rat ([2]; 12.5 mg/kg): 13%
- Percent inhibition of NaOH induced ulcers in the rat ([2]; 25 mg/kg): 46%
- Percent inhibition of NaOH induced ulcers in the rat ([2]; 50 mg/kg): 54%

SMILES: CCCCCCC1CCC(N(C)C)C1CCCCCCC(=O)O (centres unmarked) [drawing 10]
- Percent inhibition of ethanol induced ulcers in the rat ([1]; 2.5 mg/kg): 24%
- Percent inhibition of ethanol induced ulcers in the rat ([1]; 5 mg/kg): 43%
- Percent inhibition of ethanol induced ulcers in the rat ([1]; 10 mg/kg): 62%
- Percent inhibition of ethanol induced ulcers in the rat ([1]; 50 mg/kg): 97%
- Percent inhibition of ethanol induced ulcers in the rat ([1]; 100 mg/kg): 91%

SMILES: CCCCCCC1CCC(NC(C)=O)C1CCCCCCC(=O)O (centres unmarked) [drawing 42]
- inhibition values of gastric depletion ([5]; 50 mg/kg): 78%

SMILES: CCCCCCC1CCC(NC(C)C)C1CCCCCCC(=O)O (centres unmarked) [drawing 29]
- Percent inhibition of aspirin-induced ulcers in the rat [6]: 63%

SMILES: CCCCCCC1CCC(NC)C1CCCCCCC(=O)O (centres unmarked) [drawing 39]
- inhibition values of gastric depletion ([5]; 50 mg/kg): 33%

SMILES: CCCCCCC1CCC(N(C)C)C1CCCCCCC(=O)O (centres unmarked) [drawing 28]
- Percent inhibition of aspirin-induced ulcers in the rat [6]: 88%

SMILES: CCCCCCC1CCC(NC)C1CCCCCCC(=O)O (centres unmarked) [drawing 21]
- Percent inhibition of NaOH induced ulcers in the rat ([2]; 12.5 mg/kg): 81%
- Percent inhibition of NaOH induced ulcers in the rat ([2]; 25 mg/kg): 87%

SMILES: CCCCCCC1CCC(N)C1CCCCCCC(=O)O (centres unmarked) [drawing 38]
- inhibition values of gastric depletion ([5]; 25 mg/kg): 18%
- inhibition values of gastric depletion ([5]; 50 mg/kg): 80%
- inhibition values of gastric depletion ([5]; 100 mg/kg): 80%

SMILES: CCCCCCC1CCC(O)C1CCCCCCC(=O)O (centres unmarked) [drawing 25]
- Percent inhibition of NaOH induced ulcers in the rat ([2]; 50 mg/kg): 53%
- Percent inhibition of NaOH induced ulcers in the rat ([2]; 100 mg/kg): 84%
- Percent inhibition of NaOH induced ulcers in the rat ([2]; 200 mg/kg): 92%

SMILES: CCCCCCC1CCC(NC(C)=O)C1CCCCCCC(=O)O (centres unmarked) [drawing 12]
- Percent inhibition of ethanol induced ulcers in the rat ([1]; 10 mg/kg): 25%
- Percent inhibition of ethanol induced ulcers in the rat ([1]; 100 mg/kg): 78%
